Conditions in all cases: average where tested multiple times
The target in experiment [1] is T1, BCAT2 (Homo sapiens, UniProt O15382).
T1 sequence (O15382 28-392): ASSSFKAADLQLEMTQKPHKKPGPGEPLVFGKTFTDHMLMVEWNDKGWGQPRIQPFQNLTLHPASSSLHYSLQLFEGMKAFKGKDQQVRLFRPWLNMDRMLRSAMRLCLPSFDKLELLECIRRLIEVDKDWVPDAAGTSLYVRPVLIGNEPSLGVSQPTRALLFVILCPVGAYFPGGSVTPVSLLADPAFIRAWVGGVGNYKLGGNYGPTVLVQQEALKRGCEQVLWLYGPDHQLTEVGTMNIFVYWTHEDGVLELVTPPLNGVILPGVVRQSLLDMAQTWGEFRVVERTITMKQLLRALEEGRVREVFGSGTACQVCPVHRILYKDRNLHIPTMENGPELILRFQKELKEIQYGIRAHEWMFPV
As to the kind of experiment: BCAT2 in vitro enzyme inhibition assay (resazurin/diaphorase-coupled fluorescence). Format: biochemical. In outline:
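Coupled fluorescence readout: glutamate formed from L-leucine/α-ketoglutarate transamination drives GDH/NAD/diaphorase reduction of resazurin (Ex 540/Em 590). Human BCAT2 was first exposed 1 h at room temperature to compound, top final 100 μM in 3-fold, 10-point series; substrate reaction ran 1 h before SDS quench, in technical duplicate with DMSO max and enzyme-free min controls.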
A general note: Resazurin is reduced to fluorescent resorufin, in cell work by metabolically active cells.

The next experiment concerns the target T2, hBCAT1 (Homo sapiens, UniProt P54687).
T2 sequence (P54687 1-386): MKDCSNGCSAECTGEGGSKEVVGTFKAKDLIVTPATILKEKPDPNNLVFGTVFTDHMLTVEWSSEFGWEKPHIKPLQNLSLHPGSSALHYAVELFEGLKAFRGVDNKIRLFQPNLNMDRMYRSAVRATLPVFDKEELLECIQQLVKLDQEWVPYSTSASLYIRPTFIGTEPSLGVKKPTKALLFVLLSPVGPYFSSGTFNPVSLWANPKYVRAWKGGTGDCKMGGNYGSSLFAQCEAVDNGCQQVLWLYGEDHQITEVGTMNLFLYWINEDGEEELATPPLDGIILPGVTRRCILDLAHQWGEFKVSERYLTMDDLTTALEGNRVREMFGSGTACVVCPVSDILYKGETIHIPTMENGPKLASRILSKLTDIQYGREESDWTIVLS
As to the kind of experiment: BCAT1 in vitro enzyme inhibition assay (resazurin/diaphorase-coupled fluorescence). Format: biochemical. In outline:
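Human BCAT1 activity read by resazurin/diaphorase-coupled fluorescence. Compounds added from 50× DMSO stocks at 1:50, giving 10-point 3-fold titrations from 100 μM top final concentration. Run in technical duplicate; repeat tests averaged.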

Experiment [2] has as its target T1, BCAT2. Nature of the experiment: BCAT2 in vitro cell inhibition using engineered A549 cells (KMV cell assay, 13C6-KMV by LC-MS/MS). Type of experiment: cell-based. Further details: The result was an engineered A549 cell line that expressed endogenous BCAT2; endogenous in cells; host or cells: A549 cells with MUT and BCAT1 knocked out by CRISPR/CAS9; key to BCAT2 Cell Inhibition: A: less than or equal to 0.100 μM; B: greater than 0.100 and less than or equal to 0.500 μM; C: greater than 0.500 and less than or equal to 1.000 μM; d: greater than 1.000 μM; E: no fit.

With `O=C(N[C@H]1CCC[C@@H](n2c(-c3ccccc3F)nc3cnc(-c4ncco4)cc32)C1)c1ccc(Br)s1` [Example 7, 5-bromo-N-((1S,3R)-3-(2-(2-fluorophenyl)-6-(oxazol-2-yl)-1H-imidazo[4,5-c]pyridin-1-yl)cyclohexyl)thiophene-2-carboxamide], the IC50 (commonly the concentration that gives 50% inhibition) at BCAT2 [1] was at most 100 nM; at hBCAT1 it was under 500 nM; against BCAT2 [2], at most 100 nM.

`CC(C)Cc1nc2cnc(-n3cc(F)cn3)cc2n1[C@@H]1CCC[C@H](NC(=O)c2ncc(Cl)s2)[C@H]1O` [Example 232, 5-chloro-N-((1S,2R,3R)-3-(6-(4-fluoro-1H-pyrazol-1-yl)-2-isobutyl-1H-imidazo[4,5-c]pyridin-1-yl)-2-hydroxycyclohexyl)thiazole-2-carboxamide]: the IC50 is at most 100 nM against BCAT2 [1], under 500 nM on hBCAT1 and 500 to 1000 nM against BCAT2 [2].

In the case of `O=C(N[C@H]1CCC[C@@H](n2c(-c3ccccn3)nc3cnc(-n4nccn4)cc32)C1)c1ccc(Br)s1` [Example 11, 5-bromo-N-((1S,3R)-3-(2-(pyridin-2-yl)-6-(2H-1,2,3-triazol-2-yl)-1H-imidazo[4,5-c]pyridin-1-yl)cyclohexyl)thiophene-2-carboxamide], the IC50 on BCAT2 [1] was at most 100 nM; against hBCAT1, under 500 nM; at BCAT2 [2] it was at most 100 nM.

As for `O=C(N[C@H]1CCC[C@@H](n2c(C3CCCCO3)nc3cnc(-c4nc[nH]n4)cc32)C1)c1ncc(Cl)s1` (single isomer, unassigned) [Example 90], the IC50 at BCAT2 [1] was at most 100 nM; on hBCAT1 it was under 500 nM; against BCAT2 [2], 100 to 500 nM.

For the compound `CNC(=O)c1cc2nc(-c3ccccc3F)n(C3CCCC(NC(=O)c4ncc(Cl)s4)C3O)c2cn1` (stereo not drawn) [Example 281, 5-chloro-N-(3-(2-(2-fluorophenyl)-6-(methylcarbamoyl)-3H-imidazo[4,5-c]pyridin-3-yl)-2-hydroxycyclohexyl)thiazole-2-carboxamide], the IC50 against BCAT2 [1] was at most 100 nM; at hBCAT1, under 500 nM; on BCAT2 [2], at most 100 nM.

Turning to `O=C(N[C@H]1C[C@H](O)C[C@@H](n2c(-c3ccccc3F)nc3cnc(F)cc32)C1)c1ncc(Cl)s1` [Example 276, 5-chloro-N-((1R,3S,5S)-3-(6-fluoro-2-(2-fluorophenyl)-1H-imidazo[4,5-c]pyridin-1-yl)-5-hydroxycyclohexyl)thiazole-2-carboxamide], the IC50 on BCAT2 [1] was at most 100 nM; at hBCAT1, under 500 nM; at BCAT2 [2], at most 100 nM.

With `CO[C@@H]1C[C@H](NC(=O)c2ncc(Cl)s2)C[C@H](n2c(CC(C)C)nc3cnc(-n4nccn4)cc32)C1` (single isomer, unassigned) [Example 439], the IC50 against BCAT2 [1] was at most 100 nM; against hBCAT1, under 500 nM; on BCAT2 [2], at most 100 nM.

Regarding `Cc1coc(-c2cc3c(cn2)nc(-c2ccccc2F)n3[C@@H]2CCC[C@H](NC(=O)c3ncc(Cl)s3)[C@H]2O)n1` [Example 238, 5-chloro-N-((1S,2R,3R)-3-(2-(2-fluorophenyl)-6-(4-methyloxazol-2-yl)-1H-imidazo[4,5-c]pyridin-1-yl)-2-hydroxycyclohexyl)thiazole-2-carboxamide], the results for the IC50 at BCAT2 [1], at hBCAT1 and against BCAT2 [2] were at most 100 nM, under 500 nM and at most 100 nM, respectively.

Take `O=C(N[C@H]1CCC[C@@H](n2c(COC(F)(F)F)nc3cnc(-c4nc[nH]n4)cc32)C1)c1ncc(Cl)s1` [Example 313, N-((1S,3R)-3-(6-(1H-1,2,4-triazol-3-yl)-2-((trifluoromethoxy)methyl)-1H-imidazo[4,5-c]pyridin-1-yl)cyclohexyl)-5-chlorothiazole-2-carboxamide]: the figures for the IC50 against BCAT2 [1], on hBCAT1 and at BCAT2 [2] were at most 100 nM, under 500 nM and at most 100 nM, respectively.

`O=C(N[C@H]1CCC[C@@H](n2c(-c3ccccc3F)nc3cnc(-n4nccn4)nc32)C1)c1ncc(C(F)F)s1` [Example 62, 5-(difluoromethyl)-N-((1S,3R)-3-(8-(2-fluorophenyl)-2-(2H-1,2,3-triazol-2-yl)-9H-purin-9-yl)cyclohexyl)thiazole-2-carboxamide]: the IC50 against BCAT2 [1] was at most 100 nM; against hBCAT1, 500 to 1000 nM; against BCAT2 [2], at most 100 nM.

Consider `CC(C)C(=O)c1nc2cnc(-c3nc[nH]n3)cc2n1[C@@H]1CCC[C@H](NC(=O)c2ncc(Cl)s2)C1` [Example 187, 5-chloro-N-((1S,3R)-3-(2-isobutyryl-6-(1H-1,2,4-triazol-3-yl)-1H-imidazo[4,5-c]pyridin-1-yl)cyclohexyl)thiazole-2-carboxamide], for which the IC50 on BCAT2 [1] fell in the range of 100 to 500 nM; against hBCAT1, 1000 to 5000 nM; against BCAT2 [2], 100 to 500 nM.

On to `CC(C)Cc1nc2cnc(-c3nccs3)cc2n1C1CCCC(NC(=O)c2ncc(Cl)s2)C1O` (stereo not drawn) [Example 386, 5-chloro-N-(2-hydroxy-3-(2-isobutyl-6-(thiazol-2-yl)-1H-imidazo[4,5-c]pyridin-1-yl)cyclohexyl)thiazole-2-carboxamide], for which the IC50 against BCAT2 [1] was at most 100 nM; at hBCAT1, under 500 nM; against BCAT2 [2], at most 100 nM.

With `CC(C)Cc1nc2cnc(-c3nccs3)cc2n1[C@@H]1CCC[C@H](NC(=O)c2ncc(Cl)s2)C1` [Example 163, 5-chloro-N-((1S,3R)-3-(2-isobutyl-6-(thiazol-2-yl)-1H-imidazo[4,5-c]pyridin-1-yl)cyclohexyl)thiazole-2-carboxamide], the IC50 against BCAT2 [1] is at most 100 nM; against hBCAT1 it was under 500 nM; at BCAT2 [2], at most 100 nM.

For `O=C(N[C@H]1C[C@H](O)C[C@@H](n2c(-c3ccccc3F)nc3cnc(-c4ccccn4)cc32)C1)c1ncc(Cl)s1` (single isomer, unassigned) [Example 252], the IC50 is at most 100 nM against BCAT2 [1], under 500 nM at hBCAT1 and at most 100 nM on BCAT2 [2].

On to `O=C(N[C@H]1CCC[C@@H](n2c(-c3ccccc3F)nc3cnc(-c4cccnc4)cc32)C1)c1ncc(Cl)s1` [Example 180, 5-chloro-N-((1S,3R)-3-(2-(2-fluorophenyl)-6-(pyridin-3-yl)-1H-imidazo[4,5-c]pyridin-1-yl)cyclohexyl)thiazole-2-carboxamide], for which the values for the IC50 on BCAT2 [1], against hBCAT1 and at BCAT2 [2] were at most 100 nM, 1000 to 5000 nM and 100 to 500 nM, respectively.

As for `CO[C@H]1C[C@H](NC(=O)c2ncc(Cl)s2)C[C@H](n2c(CC(C)C)nc3cnc(-n4cncn4)cc32)C1` [Example 417, 5-chloro-N-((1R,3S,5S)-3-(2-isobutyl-6-(1H-1,2,4-triazol-1-yl)-1H-imidazo[4,5-c]pyridin-1-yl)-5-methoxycyclohexyl)thiazole-2-carboxamide], the results for the IC50 against BCAT2 [1], against hBCAT1 and against BCAT2 [2] were 100 to 500 nM, 1000 to 5000 nM and over 1000 nM, respectively.

For `O=C(N[C@H]1CCC[C@@H](n2c(-c3ncccc3F)nc3cnc(-n4ccnn4)cc32)C1)c1ncc(Br)s1` [Example 35, 5-bromo-N-((1S,3R)-3-(2-(3-fluoropyridin-2-yl)-6-(1H-1,2,3-triazol-1-yl)-1H-imidazo[4,5-c]pyridin-1-yl)cyclohexyl)thiazole-2-carboxamide], the IC50 was at most 100 nM on BCAT2 [1], 1000 to 5000 nM against hBCAT1 and 500 to 1000 nM against BCAT2 [2].

`O=C(N[C@H]1CCC[C@@H](n2c(Oc3ccccc3)nc3cnc(-n4nccn4)cc32)C1)c1ccc(Br)s1` [Example 63, 5-bromo-N-((1S,3R)-3-(2-phenoxy-6-(2H-1,2,3-triazol-2-yl)-1H-imidazo[4,5-c]pyridin-1-yl)cyclohexyl)thiophene-2-carboxamide]: the IC50 is at most 100 nM against BCAT2 [1], over 5000 nM against hBCAT1 and 100 to 500 nM at BCAT2 [2].

With `Cc1nc2cnc(-n3ccnn3)cc2n1[C@@H]1CCC[C@H](NC(=O)c2ccc(Br)s2)C1` [Example 52, 5-bromo-N-((1S,3R)-3-(2-methyl-6-(1H-1,2,3-triazol-1-yl)-1H-imidazo[4,5-c]pyridin-1-yl)cyclohexyl)thiophene-2-carboxamide], the IC50 against BCAT2 [1] was over 1000 nM; against hBCAT1 it was over 5000 nM. The “BCAT2 Cell Inhibition” value at BCAT2 [2] is “E”.
